Data as given in PubChem BioAssay (NCI).
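Results reflect a 48-hour exposure of cells in 96-well plates to compound at five concentrations. GI50 is the concentration that inhibits growth by half. At the TGI there is no net growth.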

Legend:
Experiment in all cases: NCI-60 cell line screen, 48 h
[1] = system: A549 NSCLC
[2] = system: OVCAR-3 ovarian
[3] = system: RPMI-8226 leukemia
[4] = system: RXF 393 renal
[5] = system: SF-268 CNS
[6] = system: SK-MEL-2 melanoma
[7] = system: SK-MEL-28 melanoma
[8] = system: SR leukemia
[9] = system: MDA-MB-435
[10] = system: MDA-N

SMILES	TGI [1] [µM]	TGI [2] [µM]	TGI [3] [µM]	TGI [4] [µM]	TGI [5] [µM]	TGI [6] [µM]	TGI [7] [µM]	TGI [8] [µM]	TGI [9] [µM]	TGI [10] [µM]	GI50 [2] [µM]	GI50 [7] [µM]
S=c1ncc2c([nH]1)C1c3ccccc3C2c2ccccc21	> 100	> 100	> 100	> 100	> 100	> 100	> 100	> 100				
Cc1ccc2c(=O)cc(-c3ccc(C)s3)[nH]c2n1	> 33.8	> 46.8	2.57		> 74	> 100		> 100				
COC(=O)CCNC(=O)OCc1ccccc1	> 100	> 100	> 100		> 100	> 100	> 100	> 100	> 100	> 100		
Cn1c2ccccc2c(=O)c2c(O)cc3c(c21)C=CC(C)(C)O3	> 25	> 25	> 25	> 25	> 25	> 25	> 25					
C/C(=N\NC(=O)c1ccccc1O)c1cccc(/C(C)=N/NC(=O)c2ccccc2O)n1.O=S(=O)([O-])[O-].[Fe+2]	> 100	> 100		> 100	> 100	> 100	> 100	> 100			> 100	> 100
CCOC(=O)c1c(NC(=S)Nc2ccc(Cl)cc2)sc2c1CCN(C)C2	> 100	> 100	> 100	> 100	> 100	> 100				> 100		
CCOc1ccccc1N=Nc1c(-c2ccccc2)nn(C(=O)CC(=O)Nc2cccc(C)c2)c1-c1ccccc1	> 100	> 100	> 100	> 100	> 100	> 100	> 100	> 100				
CC(=O)NC(NCCN)(c1ccccc1)c1ccccc1	> 100		> 100	> 100	> 100		> 100	> 100	> 100			
C/C=C1\CN2CCc3c([nH]c4ccccc34)C2CC1CCO (stereo not given)	> 100	> 100		> 100	> 100	> 100	> 100	> 100				
Cc1cc(=O)oc2cc(OCC(O)COC(C)C)ccc12 (stereo not given)	> 100	> 100	> 100		> 100		> 100	> 100		> 100		
OC(CN(CCCl)CCCl)C(O)C(O)C(O)CN(CCCl)CCCl (stereo not given)	> 100	> 100	> 100	> 100	> 100	> 100	> 100	> 100	> 100			
CCN(CC)CCN(C)c1ccc(CO)c2c1C(=O)c1ccccc1S2=O (stereo not given)	25.6	4.11	11.8	36	35.9	40.1	10.2	5.53	3.65			
COc1cccc(C2SC(N)=Nc3c2c(C)nn3C(=O)Cc2ccccc2)c1 (stereo not given)	> 100		> 100		> 100		> 100	> 100	> 100	> 100		
COc1cccc(/C=C2\S/C(=N/Nc3nc(C)c(C)s3)NC2=O)c1O	> 100	> 100		> 100	> 100	> 100	> 100		> 100	> 100		
Cc1ccc(C)n2c1nc1ccccc12	> 100	> 100	> 100	> 100	> 100		> 100	> 100	> 100	> 100		
COc1cc(C2(c3ncc[nH]3)SSSCC2O)ccc1O (stereo not given)	> 100	> 71.7	> 100	89.4	23.8	> 100	> 100					
Clc1ccc(CCN[C@H]2CCCC[C@H]2N2CCCC2)cc1Cl	89.6	65.2	97.1		> 100	44.1	86.2	> 100	43.8	38.5		
CC(C)CC(N)C(=O)Nc1ccc2ccccc2c1 (stereo not given)	> 100	> 100	> 100	> 100	> 100	> 100	> 100	> 100		> 100		
CC(=O)OCC1OC(n2c3c(c(-c4ccc(Cl)cc4)c(C#N)c2=S)CCCC3)C(OC(C)=O)C(OC(C)=O)C1OC(C)=O (stereo not given)	> 100	> 100		84.4	> 100	63.3	94.6	> 100	> 100	> 100		
Nc1ncnc2c1ncn2C1CCC(CP(=O)(O)O)C1 (stereo not given)	> 100	> 100	> 100	> 100	> 100	> 100	> 100		> 100	> 100		
C=CC1CN(C(=O)OCC)N(C(=O)OCC)C1CCc1ccccc1 (stereo not given)	> 100		> 100		> 100	> 100	> 100	> 100	> 100	> 100		
COc1nc(N)c(NC(C)=O)c(=O)n1C	> 100		> 100	> 100	> 100	> 100	> 100	> 100				
O=C(N/N=C/c1cc(Br)cc(Br)c1[O-])c1ccccc1O.O=C(N/N=C/c1cc(Br)cc(Br)c1[O-])c1ccccc1O.[Zn+2]	21.6	0.742		11.9	17.5	12	11.5	4				
CCCSc1ccc2[nH]c(N3C(=O)/C(=C/c4ccc(SC)cc4)N=C3c3ccccc3)cc2c1	> 50	> 50		> 46.6	> 50	> 38.5	> 50		21.2	17.5		
